pIC50: −log10 of the molar value.
Tests used:
AMPA type receptors = test: 3H-AMPA Binding (Test 1), rat cerebral cortical membrane homogenate; settings: 3H-AMPA 5 nM, rat cerebral cortical membranes, pH 7.1, 0° C., 30 min; read-out: TEST 1 IC50 (displacement of 50% of the specific binding of 3H-AMPA)
Method: (§1) The pharmacological properties of the compounds of the present invention can be illustrated by determining their capability for displacing radioactively labelled 2-amino-3-hydroxy-5-methyl-4-isoxazolepropionic acid (AMPA) from the AMPA type receptors.
The displacement activity of the compounds may be shown by determining the IC50 value which represents the concentration (μM) which causes a displacement of 50% of the specific binding of ^3 H-AMPA.
^3 H-AMPA Binding (Test 1)
500 μl of thawed rat cerebral cortical membrane homogenate in Tris-HCl (30 mM), CaCl2 (2.5 mM) and KSCN (100 mM) pH 7.1 were incubated at 0° C. for 30 min. with 25 μl ^3 H-AMPA (5 nM final concentration) and the test compound and buffer. Nonspecific binding was determined by incubation with L-glutamic acid (600 μM final concentration). The binding reaction was terminated by adding 5 ml of ice-cold buffer followed by filtration through Whatman GF/C glass fibre filters and 2×5 ml wash with ice-cold buffer. Bound radioactivity was measured by scintillation counting. IC50 was determined by Hill analysis of at least four concentrations of test compound.

[1] = test system: quisqualic acid stimulated spreading depression in chicken retina; test: Spreading Depression (Test 2), quisqualate stimulated, chicken retina; assay type: cell-based; settings: Gallus gallus, 0.25 h, quisqualate 1 μg/ml, 26° C., 15 min incubation with test compound, read-out: TEST 2 IC50 (50% maximal inhibition of quisqualic acid stimulated spreading depression)
Method: as §1
The antagonism is measured by determining the IC50 value which represents the concentration which produces a 50% maximal inhibition of quisqualic acid stimulated spreading depression in chicken retina.
Spreading Depression (Test 2)
Chicks (3-10 days old) were decapitated, the eyes enucleated and sectioned along the equatorial plane. […]
The eyes were initially incubated in normal P.S.S. for 15-30 min. and then transferred to P.S.S. containing quisqualate (1 μg/ml). […] The time taken for an S.D. to start in each eye was measured.
After a further 15 min. of incubation in normal P.S.S. the eyes were transferred to normal P.S.S. containing the test compound and incubated for 15 min. […] The time taken for an S.D. to start in each eye was measured again. The eyes were then placed back in normal P.S.S. and after 15 min. the time taken for S.D. to start was measured again, in order to assess the degree of recovery from any drug effects. […]

Row | Structure (SMILES) | pIC50 (AMPA type receptors) | pIC50 [1]
1 | O=c1[nH]c2cc(C(F)(F)F)ccc2n2c(CP(=O)(O)O)nnc12 [Example 20, 1-Phosphonomethyl-7-trifluoromethyl[1,2,4]triazolo[4,3-a]quinoxalin-4(5H)-one] | 6.59 | 6.40
2 | O=c1[nH]c2c3ccccc3ccc2n2c(CP(=O)(O)O)nnc12 [Example 30, 3-Phosphonomethylbenzo[f]-1,2,4-triazolo[4,3-a]quinoxalin-12(11H)-one] | 6.32 | 5.85

Source: patent publication US5559106A, “Heterocyclic compounds, their use and preparation” (Novo Nordisk A/S, priority 1993, dated 1996)
